The source of these data is patent publication US12628820B2, “Systems and methods for preservation of cells” (UNIVERSITY OF LOUISVILLE RESEARCH FOUNDATION, Inc., priority 2017, dated 2026).

In one series the test system is red blood cells. Briefly: Microscopy of dried red blood cells after rehydration. The format is cell-based. The following applies: after loading with trehalose; confocal image. As for the experimental part: FIG. 5A-B includes microscopic images of dried red blood cells without trehalose (A) and after loading with trehalose (B).
(§1) In vitro experiments have been performed to validate the methods and systems described herein. Briefly, a 0.5 mL solution containing pig or human RBCs, 200 mM trehalose, and microbubbles was placed in a conical tube and sonicated with a 2.5-MHz clinical ultrasound probe for 70 seconds (Philips 4-1 on a Verasonics Vantage 64LE ultrasound imaging system). […] Following sonication, samples were dried (FIG. 5A-B), frozen at −80° C., or freeze-dried for 1 week. Upon thawing or rehydration, the percentage of structurally intact RBCs was counted (FIG. 6A-B). Cell recovery rates of up to 85% were achieved after freezing/thawing, compared to less than 40% without sonoporation. Cell recovery rates of up to 12% were achieved after freeze-drying/rehydration, compared to 0% without sonoporation. Although the recovery is still low, this was believed to be a significant result given that not a single RBC was recovered from freeze-dried samples that had not been treated with sonoporation. […] The microfluidic sonoporation device can further improve the recovery rates by enabling consistent and precise trehalose delivery to each cell. This device is also effective in processing RBCs for long-term preservation in a frozen or freeze-dried state.

For series [1], the system named is RBCs. Briefly: Recovery of RBCs following freeze-drying/rehydration. The format is cell-based, pig or human. On the procedure:
as §1

For series [2], the system named is RBCs. Briefly: Recovery of RBCs following freezing/thawing. The format is cell-based, pig or human. The note with it: for cell recovery rate (structurally intact RBCs) after freezing/thawing: frozen at -80° C. As for the experimental part:
as §1

For series [3], the system named is RBCs. Briefly: Recovery of RBCs 24 hours after sonoporation (toxicity). The format is cell-based, pig or human. The note with it: 200 mM trehalose, microbubbles, 2.5-MHz ultrasound 70 seconds. On the procedure:
as §1

For `OC[C@H]1O[C@H](O[C@H]2O[C@H](CO)[C@@H](O)[C@H](O)[C@H]2O)[C@H](O)[C@@H](O)[C@@H]1O` [trehalose], the “shape of dried blood cells after rehydration” value with red blood cells is “maintain shape after rehydration”. Besides, the “cell recovery rate (structurally intact RBCs) after freeze-drying/rehydration” value in the series with RBCs [1] (200 mM trehalose with sonoporation, freeze-dried for 1 week) is “up to 12%”; in the series with RBCs [1] (without sonoporation, freeze-dried) it was 0%. Moreover, in the series with RBCs [1] (after small changes to the cell media composition and freeze-drying parameters), the “recovery rate after freeze-drying, improved technique” value was “above 12%”. In addition, the “recovery after freeze-drying, initial experiments” value in the series with RBCs [1] (initial experiments (data not shown)) is “less than 8%”. For the same molecule, the “cell recovery rate (structurally intact RBCs) after freezing/thawing” value with RBCs [2] (200 mM trehalose with sonoporation) was “up to 85%”; with RBCs [2] (without sonoporation), “less than 40%”. The “recovery rate for frozen cells” value with RBCs [2] (after small changes to the cell media composition, frozen cells) is given as “above 85%”. Further, the “cell recovery 24 hours after sonication” value in the series with RBCs [3] was > 95%.
